Read-outs that look alike come from different tables or passages of the source.
Tests used:
patients with T2DM [1] = test: Phase 1 multiple-ascending dose study in T2DM (Example 1): body weight, waist circumference, body composition; assay type: in vivo, human
From the text: This study is a Phase 1, single-site, patient- and investigator-blinded, placebo controlled, randomized, non-crossover, multiple-ascending dose study with titration in each cohort in patients with T2DM to investigate the safety, tolerability, PK, and PD of the GLP-1/glucagon co-agonist peptide of SEQ ID NO:1 (Compound 1) administered as multiple SC injections QW for 12 weeks in Cohort 1 and 16 weeks in Cohort 2.
The first dosing regimen (also referred to as Cohort 1) is 12 weeks in duration and requires dose increments of 1.5 mg starting from 1.5 mg: • 1.5 mg QW Compound 1 for 4 weeks; • 3.0 mg QW Compound 1 for 4 weeks; and • 4.5 mg QW Compound 1 for 4 weeks.
The second dosing regimen (also referred to as Cohort 2) is 16 weeks in duration and requires dose increments of 2 mg starting from 2 mg: • 2 mg QW Compound 1 for 3 weeks; • 4 mg QW Compound 1 for 3 weeks; • 6 mg QW Compound 1 for 3 weeks; • 8 mg QW Compound 1 for 3 weeks; and • 10 mg QW Compound 1 for 4 weeks.
In respect of each dosing regimen, Compound 1 is administered SC into the abdomen of the patient after an overnight fast for at least 8 hours.
In respect of Cohort 1, body weight is measured at baseline and Days 1, 8, 15, 22, 29, 36, 43, 50, 57, 64, 71 and 78.
Wherever possible, the same scale is used for all weight measurements throughout the study and the scale is not moved or recalibrated. Subjects are weighed in light clothing at approximately the same time in the morning before dosing (on Day 1 only) and after an overnight fast and evacuation of bowel and the bladder, if possible. During the treatment period, weight is measured twice on each scheduled occasion, with the subject stepping off the scale between measurements. The average of the two weight measurements is recorded in the source document.
In respect of Cohort 1, waist circumference is measured at baseline and Days 1, 8, 15, 22, 29, 36, 43, 50, 57, 64, 71 and 78.
Waist circumference is measured at the midpoint between the lower margin of the least palpable rib and the top of the iliac crest. The patient stands with feet close together, arms at the side and body weight evenly distributed, and should wear little clothing. The patient should be relaxed, and the measurements should be taken at the end of a normal expiration. During screening, baseline, the treatment period, and at follow-up, waist circumference will be measured twice on each scheduled occasion. The average of the two measurements will be recorded in the source document.

[2] = human, in vivo
From the text: Up to two samples may be collected at additional time points during the study if warranted and agreed upon between both the investigator and sponsor.
All available PK data is utilized for model development.

patients with T2DM [3] = test: Example 1 study: gastric emptying (acetaminophen PK); assay type: in vivo, human
From the text: Acetaminophen is a well-established marker for the rate and extent of gastric emptying. It is rapidly absorbed from the duodenum upon release from the stomach. A delay in gastric emptying is reflected in the alterations to the concentration-time profile of acetaminophen, specifically, decreasing its Cmax and increasing time of maximum observed drug concentration (tmax) without altering the extent (total drug amount) absorbed. An oral solution dose of approximately 1 g acetaminophen is considered to be sufficient for bioanalytical detection and is administered as indicated below in respect of Cohorts 1 and 2. […] Concentrations of acetaminophen are assayed using a validated LC/MS method. Bioanalytical samples collected to measure acetaminophen concentrations are retained for a maximum of 2 years following last patient visit for the study.
In respect of Cohort 1, gastric emptying is assessed at baseline and Days 2 and 79.
In respect of Cohort 2, gastric emptying is assessed at baseline and Days 2 and 107.
The PK parameters of acetaminophen were compared between treatment groups to determine the rate and extent of gastric emptying. Prior to dosing with Compound 1, the PK profiles of acetaminophen on Day −1 were similar between the treatment groups. Within treatment groups, the Cmax of acetaminophen decreased from Day −1 during 12 weeks of multiple dosing with Compound 1. The Cmax of acetaminophen was lowest on Day 2 in both treatment groups. However, the change from baseline Cmax of acetaminophen increased at Day 107.

[4] = Cohort 1 (1.5-4.5 mg QW), D78-80, baseline 59.0
[5] = Cohort 1, escalated to 4.5 mg, Day 78
[6] = Cohort 2 (2-10 mg QW), D106-108, baseline 60.1
[7] = Cohort 2, Day 134 (after end of dosing)
[8] = Cohort 2, Day 162 (after end of dosing)
[9] = Cohort 2, escalated to 4.0 mg, Day 43
[10] = Cohort 2, escalated to 6.0 mg, Day 64
[11] = Cohort 2, escalated to 8.0 mg, Day 85
[12] = Cohort 2, escalated to 10 mg, Day 109

With `CC(C)C[C@H](NC(=O)[C@H](CC(C)C)NC(=O)[C@H](Cc1c[nH]c2ccccc12)NC(=O)[C@H](CCC(=O)O)NC(=O)[C@@H](NC(=O)[C@H](Cc1ccccc1)NC(=O)[C@H](CCC(=O)O)NC(=O)[C@H](CCCCNC(=O)COCCOCCNC(=O)COCCOCCNC(=O)CC[C@H](NC(=O)CCCCCCCCCCCCCCCCCCC(=O)O)C(=O)O)NC(=O)[C@H](C)NC(=O)[C@H](CCCCN)NC(=O)[C@H](CCCCN)NC(=O)[C@H](CCC(=O)O)NC(=O)[C@H](CC(=O)O)NC(=O)[C@H](CC(C)C)NC(=O)[C@H](Cc1ccc(O)cc1)NC(=O)[C@H](CCCCN)NC(=O)[C@H](CO)NC(=O)[C@H](Cc1ccc(O)cc1)NC(=O)[C@H](CC(=O)O)NC(=O)[C@H](CO)NC(=O)[C@@H](NC(=O)[C@H](Cc1ccccc1)NC(=O)[C@@H](NC(=O)CNC(=O)[C@H](CCC(N)=O)NC(=O)C(C)(C)NC(=O)[C@@H](N)Cc1c[nH]cn1)[C@@H](C)O)[C@@H](C)O)C(C)C)C(=O)N[C@@H](CCC(=O)O)C(=O)NCC(=O)NCC(=O)N1CCC[C@H]1C(=O)N[C@@H](CO)C(=O)N[C@@H](CO)C(=O)NCC(N)=O` [Compound 1] the “Lean body Mass” value (patients with T2DM [1]; [4]) was 59.4 kg, the Lean body mass (patients with T2DM [1]; [4]) was 59.4 kg and the “% Lean body mass” value (patients with T2DM [1]; Cohort 1 (1.5-4.5 mg QW), D78-80, baseline 60.9%) was 64.3%. The Waist circumference (patients with T2DM [1]; Cohort 1 (1.5-4.5 mg QW), D78-80, baseline 110.4) was 105.7 cm, the “mean change from baseline in body weight” value (patients with T2DM [1]; Cohort 1 (1.5-4.5 mg QW), Day 78) was −2.88 kg at Day 78 and the “body weight, mean percent change from baseline” value (shortened to “body weight, mean percent change”) (patients with T2DM [1]; [5]) was −3.03%. For the same molecule, the “waist circumference, approximate reduction from baseline” value (patients with T2DM [1]; [5]) was about 3%, the mean body weight (patients with T2DM [1]; Cohort 1, escalated to 4.5 mg, Day 78, baseline 97.19) was 94.0 kg and the mean waist circumference (patients with T2DM [1]; Cohort 1, escalated to 4.5 mg, Day 78, baseline 108.66) was 105.66 cm. For the same molecule, the “Lean body Mass” value (patients with T2DM [1]; [6]) was 56.4 kg, the Lean body mass (patients with T2DM [1]; [6]) was 56.4 kg and the “% Lean body mass” value (patients with T2DM [1]; Cohort 2 (2-10 mg QW), D106-108, baseline 63.0%) was 67.8%. For the same molecule, the Waist circumference (patients with T2DM [1]; Cohort 2 (2-10 mg QW), D106-108, baseline 108.6) was 96.7 cm, the “body weight decrease from baseline compared to placebo” value (patients with T2DM [1]; Cohort 2 (2-10 mg QW), Day 50 through Day 162) was “statistically significant decreases” and the “mean change from baseline in body weight” value (patients with T2DM [1]; Cohort 2 (2-10 mg QW), Day 109) was −10.73 kg at Day 109. The mean body weight (patients with T2DM [1]; Cohort 2, Day 134 (after end of 16 weeks dosing), baseline 94.9) was 84.05 kg, the “body weight, mean percent change” value (patients with T2DM [1]; [7]) was −11.14% and the “waist circumference, approximate reduction from baseline” value (patients with T2DM [1]; [7]) was about 9%. The mean waist circumference (patients with T2DM [1]; Cohort 2, Day 134 (after end of dosing), baseline 106.93) was 97.59 cm, the “body weight, mean percent change” value (patients with T2DM [1]; [8]) was −6.56% and the “waist circumference, approximate reduction from baseline” value (patients with T2DM [1]; [8]) was about 4%. For the same molecule, the mean body weight (patients with T2DM [1]; Cohort 2, Day 162 (after end of dosing), baseline 94.9) was 88.96 kg, the mean waist circumference (patients with T2DM [1]; Cohort 2, Day 162 (after end of dosing), baseline 106.93) was 102.79 cm and the “body weight, mean percent change” value (patients with T2DM [1]; [9]) was −4.04%. For the same molecule, the “waist circumference, approximate reduction from baseline” value (patients with T2DM [1]; [9]) was about 3%, the mean body weight (patients with T2DM [1]; Cohort 2, escalated to 4.0 mg, Day 43, baseline 94.9) was 90.38 kg and the mean waist circumference (patients with T2DM [1]; Cohort 2, escalated to 4.0 mg, Day 43, baseline 106.93) was 103.38 cm. For the same molecule, the “body weight, mean percent change” value (patients with T2DM [1]; [10]) was −7.07%, the “waist circumference, approximate reduction from baseline” value (patients with T2DM [1]; [10]) was about 5% and the mean body weight (patients with T2DM [1]; Cohort 2, escalated to 6.0 mg, Day 64, baseline 94.9) was 87.69 kg. For the same molecule, the mean waist circumference (patients with T2DM [1]; Cohort 2, escalated to 6.0 mg, Day 64, baseline 106.93) was 101.31 cm, the “body weight, mean percent change” value (patients with T2DM [1]; [11]) was −9.05% and the “waist circumference, approximate reduction from baseline” value (patients with T2DM [1]; [11]) was about 8%. The mean body weight (patients with T2DM [1]; Cohort 2, escalated to 8.0 mg, Day 85, baseline 94.9) was 85.88 kg, the mean waist circumference (patients with T2DM [1]; Cohort 2, escalated to 8.0 mg, Day 85, baseline 106.93) was 98.58 cm and the “body weight, mean percent change” value (patients with T2DM [1]; [12]) was −12.71%. For the same molecule, the “waist circumference, approximate reduction from baseline” value (patients with T2DM [1]; [12]) was about 10%, the mean body weight (patients with T2DM [1]; Cohort 2, escalated to 10 mg, Day 109, baseline 94.9) was 82.55 kg and the mean waist circumference (patients with T2DM [1]; Cohort 2, escalated to 10 mg, Day 109, baseline 106.93) was 96.56 cm. For the same molecule, the body weight reduction (patients with T2DM [1]; dose 10 mg or greater) was “greater than 12%”, the body weight reduction (patients with T2DM [1]; dose greater than 6 mg) was “greater than 9%” and the “reduction in waist circumference” value (patients with T2DM [1]; dose greater than 6.0 mg) was “greater than 5%”. For the same molecule, the “t1/2, geomean (range)” value ([2]; 4.5 mg) was 209 (117 to 362) h, the “t1/2, geomean (range)” value ([2]; 10 mg) was 213 (129 to 366) h and the “Apparent clearance, CL/F, population mean estimate” value ([2]; sc) was 0.0311 L/h. The “acetaminophen Cmax, Change From Baseline (Est % change)” value (from here on “acetaminophen Cmax … (Est % change)”) (patients with T2DM [3]; Cohort 1, Day 2) was “(0.83) %”, the “acetaminophen tmax, Change From Baseline (Est % change)” value (shortened to “acetaminophen tmax … (Est % change)”) (patients with T2DM [3]; Cohort 1, Day 2) was “(1.06) %” and the acetaminophen tmax (patients with T2DM [3]; Cohort 1, Day 2, Day −1 2.671) was 1.963 h. The “acetaminophen Cmax … (Est % change)” value (patients with T2DM [3]; Cohort 1, Day 79) was “(0.9) %”, the acetaminophen tmax (patients with T2DM [3]; Cohort 1, Day 79) was 1.478 h and the “acetaminophen tmax … (Est % change)” value (patients with T2DM [3]; Cohort 1, Day 79) was “(0.8) %”. For the same molecule, the “acetaminophen Cmax … (Est % change)” value (patients with T2DM [3]; Cohort 2, Day 2) was “(0.79) %”, the “acetaminophen tmax … (Est % change)” value (patients with T2DM [3]; Cohort 2, Day 2) was “(0.89) %” and the “acetaminophen tmax, Change From Baseline, Mean” value (patients with T2DM [3]; Cohort 2, Day 2) was 0.187 h. The acetaminophen tmax (patients with T2DM [3]; Cohort 2, Day 2, Day −1 1.214) was 1.423 h, the “acetaminophen Cmax … (Est % change)” value (patients with T2DM [3]; Cohort 2, Day 107) was “(1.18) %” and the acetaminophen tmax (patients with T2DM [3]; Cohort 2, Day 107) was 0.909 h. For the same molecule, the “acetaminophen tmax … (Est % change)” value (patients with T2DM [3]; Cohort 2, Day 107) was “(0.89) %” and the “acetaminophen tmax, Change From Baseline, Mean” value (patients with T2DM [3]; Cohort 2, Day 107) was 0.75 h.
